This is an account of results in publication PMC9608462 (Molecules, 2022).

The target in assay [1] is T1, human ERα (Homo sapiens, UniProt P03372).
T1 construct: purchased Panvera (Göttingen, Germany)
T1 sequence (P03372 1-595): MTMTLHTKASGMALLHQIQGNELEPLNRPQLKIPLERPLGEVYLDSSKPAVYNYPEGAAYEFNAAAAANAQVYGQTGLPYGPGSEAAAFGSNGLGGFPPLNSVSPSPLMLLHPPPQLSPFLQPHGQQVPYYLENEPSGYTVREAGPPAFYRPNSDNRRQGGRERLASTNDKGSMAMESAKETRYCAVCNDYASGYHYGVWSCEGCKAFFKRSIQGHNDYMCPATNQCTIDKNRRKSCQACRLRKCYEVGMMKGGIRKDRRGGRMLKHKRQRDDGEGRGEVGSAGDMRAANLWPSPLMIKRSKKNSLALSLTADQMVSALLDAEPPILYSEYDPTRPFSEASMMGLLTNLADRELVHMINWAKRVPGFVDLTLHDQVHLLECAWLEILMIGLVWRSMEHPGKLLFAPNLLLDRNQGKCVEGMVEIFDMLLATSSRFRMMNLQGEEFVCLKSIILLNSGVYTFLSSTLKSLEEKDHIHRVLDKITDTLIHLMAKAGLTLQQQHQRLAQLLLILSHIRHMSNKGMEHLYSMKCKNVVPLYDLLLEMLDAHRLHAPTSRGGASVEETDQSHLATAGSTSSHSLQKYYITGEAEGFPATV
As to the kind of experiment: Fluorescence polarization ER/D22 coactivator-peptide assay, ERα. The note with it: for agonistic/antagonistic activity for ERα: fluorescence polarisation, recombinant receptor; for EC50: recombinant human ERα, D22 peptide, 1 h. It counts as biochemical. How it is done:
(§1) Binding affinities to ERα and ERβ were determined by the dose dependence binding of the test compounds with purified human Erα and Erβ. All chemicals were obtained from Panvera (Göttingen, Germany). The assay was performed according to the protocols recommended by the manufacturer. […] D22 is a coactivator-like peptide containing an LXXLL motif and flanking sequences that resemble known coactivators. Agonist-bound ER (ERα or ERβ) can recruit D22, resulting in a more significant fraction of bound D22 and a larger polarization value. Antagonist-bound ER has a lower affinity for D22, yielding a more significant fraction of unbound D22 and a lower polarization value. Recombinant human ERα or ERβ were incubated with the tested compounds for one hour. Fluorescence polarization was measured using a Tecan Ultra Evolution multiwell plate reader (Tecan, Crailsheim, Germany) at excitation wavelength 540 nm and emission wavelength 580 nm. […] The EC50 values were derived by logarithmic curve-fitting from binding curves using GraphPad Prism 8.4.3. GraphPad Software, San Diego, California, USA. EC50 was determined from at least three independent experiments.
Background: Fluorescence polarisation rises when a labelled molecule tumbles more slowly, as on binding a larger partner.

Assay [2] relates to human endometrial adenocarcinoma cells (Ishikawa). The following applies: read-out: IC50, suppression of E2-induced expression of alkaline phosphatase; cited from earlier work.
Assay [3] deals with MCF-7 cells. The assay is described as follows: MCF-7 cells proliferation (Hoechst 33258 DNA fluorescence). Type of assay: cell-based, human. The following applies: for DNA level / DNA synthesis of MCF-7 cells: 10^3–10^4 nM. Here is the method:
The estrogen-stimulated proliferation of MCF-7 cells was performed using Hoechst 33258 DNA staining. […] After 24 h, cells were washed with PBS and kept in the same media for the next 48 h. Then, cells were incubated with tested compounds at concentrations ranging from 10^1 to 10^4 nM for 96 h. E2 at 1 nM and 10 nM was used as a positive control. […] Proliferation was assessed by the fluorometric measurement of DNA. For this purpose, cells were washed with PBS, lysed using EDTA (0.5 mL, […], pH 12.3) at 37 °C for 30 min and neutralized with 10 mM KH2PO4, and then, Hoechst 33258 (1 mg/mL) was added. Excitation at 350 nm and emission at 455 nm was used for fluorescence measurement using Tecan Infinite M Plex microplate reader (Männedorf, Switzerland).

Assay [4] has as its system human endometrial adenocarcinoma cells (Ishikawa). The following applies: E2-induced; cited from earlier work.
Assay [5] relates to MCF-7 cells transfected with luciferase reporter gene. The following applies: read-out: EC50 of luciferase expression; cited from earlier work.
The subject of assay [6] is Ishikawa cells. The assay is described as follows: Ishikawa cells proliferation (alkaline phosphatase activity). It counts as cell-based, human. The following applies: for alkaline phosphatase activity of Ishikawa cells: 10^3–10^4 nM; for alkaline phosphatase activity of Ishikawa cells / alkaline phosphatase activity / proliferation of Ishikawa cells: 72 h; for alkaline phosphatase activity / proliferation of Ishikawa cells: 10–100 nM. How it is done:
The estrogen-stimulated proliferation of Ishikawa cells was performed according to Wober and coworkers with some modifications: Ishikawa cells were seeded at a density of 5 × 10^3 cells/well in 96-well plates in phenol red-free DMEM/F12 containing 10% charcoal dextran-treated FBS. After 72 h, cells were washed with PBS and kept in the same media for the next 24 h. Then, the medium was changed, and cells were incubated with the tested compounds at concentrations ranging from 10^1 to 10^4 nM for 72 h. As a positive control, E2 at a concentration of 1 nM was used. […] The treated cells were grown for 72 h. The estrogenic stimulation was evaluated by alkaline phosphatase activity. After incubation, the cells were washed with PBS, and the plates were frozen at −20 °C until analysis. After thawing, the plates were warmed in a water bath up to 22 °C and incubated with the p-Nitrophenyl Phosphate Liquid Substrate System (Sigma-Aldrich). This ready-to-use, single-solution reagent contains p-nitrophenyl phosphate, buffer and the necessary magnesium cations. Alkaline phosphatase releases p-nitrophenol, measured kinetically at 405 nm using plate reader Biotek Instruments, Elx-800, Winooski, VT, USA).

Assay [7] concerns the target T2, human ERβ (Homo sapiens, UniProt Q92731).
T2 construct: purchased Panvera (Göttingen, Germany)
As to the kind of experiment: Fluorescence polarization ER/D22 coactivator-peptide assay, ERβ. Type of assay: biochemical. The following applies: for agonistic/antagonistic activity for ERβ: fluorescence polarisation, recombinant receptor; for EC50: recombinant human ERβ, D22 peptide, 1 h. How it is done: as §1

[8] abbreviates: 100–1000 nM (as in conclusions).

Like-named read-outs stand apart in the source and are kept apart here. A value given as a limit tells only on which side of the number the result lay.

T2 sequence (Q92731 whole entry): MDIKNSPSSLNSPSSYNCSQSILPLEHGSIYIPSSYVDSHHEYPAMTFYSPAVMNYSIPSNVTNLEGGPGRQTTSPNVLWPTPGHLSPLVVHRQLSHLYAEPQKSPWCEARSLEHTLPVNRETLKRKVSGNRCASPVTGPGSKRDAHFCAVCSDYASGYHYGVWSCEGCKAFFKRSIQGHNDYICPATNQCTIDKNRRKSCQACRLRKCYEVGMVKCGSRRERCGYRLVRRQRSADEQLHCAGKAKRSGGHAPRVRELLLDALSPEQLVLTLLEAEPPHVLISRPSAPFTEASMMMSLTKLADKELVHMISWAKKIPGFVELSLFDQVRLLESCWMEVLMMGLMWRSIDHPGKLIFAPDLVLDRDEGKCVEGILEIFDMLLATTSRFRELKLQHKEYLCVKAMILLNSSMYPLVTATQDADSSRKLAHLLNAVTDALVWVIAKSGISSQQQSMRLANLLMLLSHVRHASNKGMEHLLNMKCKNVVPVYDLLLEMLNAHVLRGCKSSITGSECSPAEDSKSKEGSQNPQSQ

By EC50 is commonly meant the concentration at which the effect is half-maximal. Usually IC50 stands for the concentration that inhibits the measured activity by half. As to `Oc1ccc(/C=C/c2cc(O)cc(O)c2)cc1` [resveratrol], in assay [1], the “agonistic/antagonistic activity for ERα” value is given as “agonistic activity”. The EC50 in assay [1] (read-out: ERα Agonist EC50) was 21.2 ± 2.2 nM; in assay [5] it was 5000 to 10000 nM. Further, in assay [2], the IC50 was 2300 nM. Moreover, the “DNA level / DNA synthesis of MCF-7 cells” value in assay [3] is listed as “stimulated an increase in the level of the assessed markers”. For the same molecule, the “proliferation of MCF-7 cells” value in assay [3] (setting [8]) was “stimulated the proliferation”. Further, in assay [4], the “concentration range suppressing progesterone receptor (PR) mRNA levels” value is 5 to 15 µM. For the same molecule, the “alkaline phosphatase activity of Ishikawa cells” value in assay [6] is “stimulated an increase in the level of the assessed markers”. The “proliferation of Ishikawa cells” value in assay [6] (setting [8]) was “stimulated the proliferation”.

In the case of `Oc1ccc(C=Cc2cc(O)c(O)c(O)c2)cc1` [Compound M8, 3,4,4′,5-tetrahydroxystilbene], the “agonistic/antagonistic activity for ERβ” value in assay [7] is “could act as ERβ agonists”. In assay [7] (read-out: ERβ Agonist EC50), the EC50 was found to be 8.1 ± 1.6 nM. In addition, the “agonistic/antagonistic activity for ERα” value in assay [1] is given as “agonistic activity”. Besides, the EC50 in assay [1] (read-out: ERα Agonist EC50) stood at 108 ± 10.2 nM. Besides, the “DNA level / DNA synthesis of MCF-7 cells” value in assay [3] was “increased DNA synthesis”. Further, in assay [6], the “alkaline phosphatase activity of Ishikawa cells” value is on record as “significantly lower compared with the control” and the “alkaline phosphatase activity / proliferation of Ishikawa cells” value is recorded as “stimulated the alkaline phosphatase”.

Take `Oc1cc(C=Cc2cc(O)c(O)c(O)c2)cc(O)c1O` [Compound M12, 3,3′,4,4′,5,5′-hexahydroxystilbene]: in assay [7], the “agonistic/antagonistic activity for ERβ” value was “did not show an antagonistic effect”. The EC50 in assay [7] (read-out: ERβ antagonist EC50) is over 5000 nM; in assay [1] (read-out: ERα antagonist EC50), 110 ± 15.5 nM. Further, the “agonistic/antagonistic activity for ERα” value in assay [1] is on record as “antagonistic activity”. Besides, the “alkaline phosphatase activity of Ishikawa cells” value in assay [6] is reported as “significantly lower compared with the control”. Also, the “alkaline phosphatase activity / proliferation of Ishikawa cells” value in assay [6] was “stimulated the alkaline phosphatase”.

Consider `Oc1cc(O)cc(C=Cc2cc(O)c(O)c(O)c2)c1` [Compound M11, 3,3′,4,5,5′-pentahydroxystilbene], for which the EC50 in assay [7] (read-out: ERβ antagonist EC50) was over 5000 nM. For the same molecule, the “agonistic/antagonistic activity for ERα” value in assay [1] is given as “antagonistic activity”. The EC50 in assay [1] (read-out: ERα antagonist EC50) was 1010 ± 30.5 nM. The “DNA level / DNA synthesis of MCF-7 cells” value in assay [3] is listed as “significantly lower compared with the control”. For the same molecule, in assay [6], the “alkaline phosphatase activity of Ishikawa cells” value is on record as “significantly lower compared with the control” and the “alkaline phosphatase activity / proliferation of Ishikawa cells” value is given as “stimulated the alkaline phosphatase”.
